Measurements as given in patent US6346278B1, “Lipid extract having anti-inflammatory activity” (Pharmalink International Limited, priority 1995, dated 2002).

What was measured:
[1] = tested on: collagen (II)-induced auto-allergic arthritis; experiment: Collagen (II)-induced auto-allergic arthritis; conditions: for Rear paw inflammation Day 2 / Rear paw inflammation Day 4: paw inflamed by collagen (II) injection; for Percent Inhibitions Front paw inflam. / Percent Inhibitions Left rear paw / Percent Inhibitions Right rear paw: day 14
Procedure: Collagen (Type II) induced polyarthritis was induced in female Wistar rats by injection of collagen (II) with a non-arthritogenic adjuvant to sensitise the test animals.
PCO was given orally after dilution into olive oil (8 mg/ml) and administered at 2.5 ml/kg/day to give 20 mg/kg.
Prophylactic treatment was from day 1 to day 13 (i.e. total […]) orally (p.o.). […] PCO was diluted into olive oil (6 mg/ml) for p.o. dosing at 2.5 ml/kg/day to give 15 mg/kg, and diluted into olive oil-cineole (17.3 v/v) (10 mg/ml) for t.d. administration at 2 ml/kg/day to give 20 mg/kg.
Seatone™ was administered p.o. at 300 mg/kg; Nurofen™ was administered p.o. at 50 mg/kg; Na Aurothiomalate (ATM) was administered in 8 doses at 6.3 mg/kg subcutaneously (s.c.).

[2] = tested on: Kaolin-induced paw oedema; experiment: Kaolin-induced paw oedema; format: in vivo, rat; conditions: 150 mg/kg p.o., without synergist
Procedure: Kaolin-induced paw oedema was investigated as a possible assay for PCO since this inflammation is slower developing than that induced with carrageenin (which recedes after three hours). The protocol involves injecting 5 mg kaolin, suspended in water (not saline, in which it aggregates), into each rear paw 40 minutes after dosing the rats with PCO given both p.o. or i.p. as dispersions prepared with 0.02% Tween in either water (p.o.) or saline (i.p.). The paw swelling was then read two hours and five hours after the kaolin injection.

arthritic rats = experiment: Anti-arthritic assay: adjuvant-induced polyarthritis, treatment days 10-13; format: in vivo; conditions: for % Reduction in Inflammation: rear paw thickness day 14 vs control
From the text: Though more time consuming, this assay is of more value than the acute assay (described above) as it detects not only (i) those anti-inflammatory drugs acting in the acute assay (but often at lower ED50 values) but also (ii) other agents e.g. clobuzarit (CIoZic^R) or lobenzarit (CCA), which obviously have unique arthritis-suppressant properties but are not anti-oedemic/antipyretic or otherwise detectable in acute assays.
The protocol used is to pre-establish disease by injecting the arthritigen on Day 0, look for first signs of paw inflammation (usually manifest on Days 10-12) and then dose the animals with test materials for four days. Over this period, the paw inflammation in the untreated control animals “blooms” rapidly to reach a near maximum on Day 14. Drugs acting over this time-frame to hold down the paw swelling are certainly anti-symptomatic but rarely disease-ablating. On ceasing treatment, there is usually a recrudescence in symptoms. This however is a positive feature of this assay as it clearly indicates a) the drug has a finite action but gives some idea of its duration of efficacy by the rapidity (or otherwise) of the rebound; and b) the animals with minimal signs of disease on Day 14 reflected a positive drug effect rather than failure to respond to the original arthritigen (i.e. false negatives). An accurate description of this assay is “late prophylaxis”. Obviously by delaying treatment until after Day 14, one can look for “therapeutic activity”, but since changes may be slow or negligible within four days (even with some powerful NSAIDs), collection of adequate data is difficult.
Details of the protocol used are: inject the arthritigen into the tailbase of female Wistar rats (160-200 gm)=800 mcg heat-killed Mycobact tuberculosis suspended in 0.1 ml squalane in such a fashion as to avoid any blood vessels and to promote optimal drainage into the lymphatics. Ten days later, the animals were weighed, the thickness of the rear paws and tail was measured and signs of inflammation in the forepaws scored on a scale of 0 to 4 +. After dosing with test compounds once daily for four days (i.e. on Days 10 through 13 post-arthritigen), these measurements were repeated on Days 14 and 18 (i.e. after completion of treatment and again after four days rebound) to monitor the arthritis development. […]
Rats with the first signs of arthritis 10 days after inoculating with mycobacterial arthritogen were then treated orally with the test materials for 4 days only. Effectiveness of the test materials was measured as […] rear paw thickness on day 14 when compared to the control group H.

stomach = experiment: Gastro-toxicity assay; format: in vivo, rat
Procedure: Gastro toxicity studies were carried out on female Wistar rats with established arthritis initiated with collagen (type II), not on drug therapy. Aspirin and PCO were suspended with 0.04% Tween-20 for oral dosing, after fasting animals overnight. […]

Carrageenin paw oedema = experiment: Acute carrageenin paw oedema assay; format: in vivo, rat; conditions: for % Inhibition Oedema 1 hr / % Inhibition Oedema 2 hr: 30 mg/kg
Procedure: Female Wistar rats (180-220 gm) were pre-dosed p.o. or i.p. with test formulations. 40 minutes later they were injected in each rear paw with 0.1 ml saline containing 0.6 mg Na carrageenin. The subsequent paw oedema was quantified by measuring the increase in paw thickness after one and two hours with a screw gauge micrometer. […] [The oedema recedes after three hours with this dose of carrageenin.]

[3] = 6.3 mg/kg s.c. in saline x8, every second day
[4] = 6.3 mg/kg s.c. x8, every second day
[5] = 50 mg/kg p.o. x15, prophylactic
[6] = 50 mg/kg p.o. x15, prophylactic day 1 to day 13
[7] = with MPL (Misoprostal 0.5 mg/kg p.o.)

## O=C([O-])CC([S-])C(=O)[O-].[Au+].[Na+].[Na+] (stereo not shown) [ATM, sodium aurothiomalate]
[1]; [3]
  Rear paw inflammation Day 2: 1.00 mm
  Rear paw inflammation Day 4: 0.68 mm
[1]; [4]
  Day 14: Signs arthritis Front paw inflam.: 1.3+
  Day 14: Signs arthritis Left rear paw: 0.47 mm
  Day 14: Signs arthritis Right rear paw: 0.70 mm
  Percent Inhibitions rear paw inflammation Day 2: 29%
  Percent Inhibitions rear paw inflammation Day 4: 46%
  Percent Inhibitions Front paw inflam.: 41%
  Percent Inhibitions Left rear paw: 76%
  Percent Inhibitions Right rear paw: 60%
[1]; 6.3 mg/kg s.c. x8, weight gain may be misleading (possible incipient kidney damage)
  ΔWt(0-14): (+24) gm
[1]; s.c. in saline every second day, higher doses were toxic
  toxic dose: > 6.3 mg/kg

## CC(=O)Oc1ccccc1C(=O)O [Aspirin]
[2]; 2 HR
  % Inhibition Oedema 2 HR: 55%
[2]; 5 HR
  % Inhibition Oedema 5 HR: 51%
Arthritic rats; adjuvant-induced rat polyarthritis
  effective dose in the standard anti-arthritic assay: 300 mg/kg
stomach; 300 mg/kg (20 times an effective dose of PCO)
  effect on the stomach (in words): considerable gastric damage
stomach; High arthritis with 0.15 N HCl co-administered orally, oral in 0.04% Tween-20
  Gastric lesion index: >112
stomach; High arthritis, Day 15, oral in 0.04% Tween-20, fasted overnight
  Gastric lesion index: 82
stomach; Low arthritis, Day 32, oral in 0.04% Tween-20, fasted overnight
  Gastric lesion index: 41
Carrageenin paw oedema; Rattus norvegicus, acute carrageenin assay
  ED50: ~150 mg/kg

## COc1ccc2c(c1)c(CC(=O)O)c(C)n2C(=O)c1ccc(Cl)cc1 [Indomethacin, indomethacin]
Arthritic rats; 1 mg/kg orally for 4 days
  % Reduction in Inflammation: 26%
Arthritic rats; 3 mg/kg orally for 4 days
  % Reduction in Inflammation: 68%
Arthritic rats; 5 mg/kg orally for 4 days
  % Reduction in Inflammation: 83%

## CC(C)Cc1ccc(C(C)C(=O)O)cc1 (stereo not shown) [Nurofen, ibuprofen]
[1]; 40 mg/kg, days 8-14
  % Inhibition Front paw: 72%
  % Inhibition Rear L. paw: 54%
  % Inhibition Rear R. paw: 07%
  Mean Differences Days 8-15 Ft. Paw Inflam.: 0.7 +
  Mean Differences Days 8-15 Rear R. Paw: 1.48 mm
  Mean Differences Days 8-15 ΔWt: +15 gm
[1]; 40 mg/kg, days 8-14 (7 daily doses), therapeutic
  Mean Differences Days 8-15 Rear L. Paw: 0.82 mm
[1]; [5]
  Day 14: Signs arthritis Front paw inflam.: 2.5+
  Day 14: Signs arthritis Left rear paw: 1.35 mm
  Day 14: Signs arthritis Right rear paw: 1.72 mm
  Percent Inhibitions rear paw inflammation Day 2: (−05) %
  Percent Inhibitions rear paw inflammation Day 4: (−20) %
  ΔWt(0-14): +12 gm
  Percent Inhibitions Front paw inflam.: (−14) %
  Percent Inhibitions Left rear paw: 32%
  Percent Inhibitions Right rear paw: 02%
[1]; [6]
  Rear paw inflammation Day 2: 1.48 mm
  Rear paw inflammation Day 4: 1.52 mm
[1]; after 40 mg/kg, days 8-14
  Differences Days 15-18 (Rebound) Front paw: 1.1+
  Differences Days 15-18 (Rebound) Rear L. paw: 0.38
  Differences Days 15-18 (Rebound) Rear R. paw: 0.38
  Differences Days 15-18 (Rebound) ΔWt.: +05
Carrageenin paw oedema; [7]
  % Inhibition Oedema 1 hr: 56%
  % Inhibition Oedema 2 hr: 58%
Carrageenin paw oedema; without MPL
  % Inhibition Oedema 1 hr: 37%
  % Inhibition Oedema 2 hr: 42%
